Results published in patent US11718642B2, “Compositions and methods for treating CNS disorders” (Sage Therapeutics, Inc., priority 2018, dated 2023).

Molecular target: GABAA receptor
Test: Steroid inhibition of [35S]-TBPS binding, rat brain cortical membranes
Conditions: in the presence of 5 mM GABA
Protocol: [^35S]-t-Butylbicyclophosphorothionate (TBPS) binding assays using rat brain cortical […] membranes in the presence of 5 mM GABA has been described (Gee et al, J. Pharmacol. Exp. Ther. 1987, 241, 346-353; Hawkinson et al, Mol. Pharmacol. 1994, 46, 977-985; Lewin, A. H et al., Mol. Pharmacol. 1989, 35, 189-194).
Briefly, cortices are rapidly removed following decapitation of carbon dioxide-anesthetized Sprague-Dawley rats (200-250 g). The cortices are homogenized in 10 volumes of ice-cold 0.32 M sucrose using a glass/teflon homogenizer and centrifuged at 1500×g for 10 min at 4° C. The resultant supernatants are centrifuged at 10,000×g for 20 min at 4° C. to obtain the P2 pellets. The P2 pellets are resuspended in 200 mM NaC/50 mM Na—K phosphate pH 7.4 buffer and centrifuged at 10,000×g for 10 min at 4° C. This washing procedure is repeated twice and the pellets are resuspended in 10 volumes of buffer. Aliquots ([…]) of the membrane suspensions are incubated with 3 nM [^35S]-TBPS and […] aliquots of test drug dissolved in dimethyl sulfoxide (DMSO) (final 0.5%) in the presence of 5 mM GABA. The incubation is brought to a final volume of 1.0 mL with buffer. Nonspecific binding is determined in the presence of […] unlabeled TBPS and ranged from 15 to 25%. Following a 90 min incubation at room temp, the assays are terminated by filtration through glass fiber filters (Schleicher and Schuell No. 32) using a cell harvester (Brandel) and rinsed three times with ice-cold buffer. Filter bound radioactivity is measured by liquid scintillation spectrometry. Non-linear curve fitting of the overall data for each drug averaged for each concentration is done using Prism (GraphPad). […] The concentration of test compound producing 50% inhibition (IC50) of specific binding and the maximal extent of inhibition (Imax) are determined for the individual experiments with the same model used for the overall data and then the means±SEM.s of the individual experiments are calculated.
Various compounds are or can be screened to determine their potential as modulators of [35S]-TBPS binding in vitro. These assays are or can be performed in accordance with the above.

| Compound | IC50 (Table I-1, 3 nM [35S]-TBPS) | IC50 (Table II-2, 3 nM [35S]-TBPS) |
| --- | --- | --- |
| C[C@@]1(O)CC[C@@H]2[C@H]3CC[C@]4(C)[C@@H](C(=O)Cn5cc(C#N)cn5)CC[C@H]4[C@@H]3CO[C@@H]2C1 [I-A17, 1-(2-((1S,3aS,3bR,5aS,7R,9aR,9bS,1aS)-7-hydroxy-7,11a-dimethylhexadecahydroindeno[4,5-c]chromen-1-yl)-2-oxoethyl)-1H-pyrazole-4-carbonitrile] | 1000 to 10000 nM | – |
| CC(=O)[C@H]1CC[C@H]2[C@@H]3COC4C[C@](C)(O)CC[C@@H]4[C@H]3CC[C@]12C (stereo in doubt) [I-A15, 1-((1S,3aS,3bR,5aS,7R,9aR,9bS,11aS)-7-hydroxy-7,11a-dimethylhexadecahydroindeno[4,5-c]chromen-1-yl)ethan-1-one] | 1000 to 10000 nM | – |
| CC(=O)[C@H]1COC[C@H]2[C@@H]3CC[C@@H]4C[C@](C)(O)CC[C@@H]4[C@H]3CC[C@]12C [II-B12, 1-((1R,4aS,4bR,6aR,8R,10aS,10bR,12aS)-8-hydroxy-8,12a-dimethylhexadecahydro-2H-naphtho[1,2-h]isochromen-1-yl)ethan-1-one] | – | 100 to 1000 nM |
| C[C@@]1(O)CC[C@H]2[C@H](CC[C@@H]3[C@@H]2CC[C@]2(C)[C@@H](C(=O)Cn4cc(C#N)cn4)OC[C@@H]32)C1 [II-A13b, 1-(2-((1S,3aS,3bR,5aR,7R,9aS,9bR,11aS)-7-hydroxy-7,11a-dimethylhexadecahydrophenanthro[1,2-c]furan-1-yl)-2-oxoethyl)-1H-pyrazole-4-carbonitrile] | – | 1000 to 10000 nM |
| CC(=O)[C@H]1OC[C@H]2[C@@H]3CC[C@@H]4C[C@](C)(O)CC[C@@H]4[C@H]3CC[C@]12C [II-A11b, 1-((1S,3aS,3bR,5aR,7R,9aS,9bR,11aS)-7-hydroxy-7,11a-dimethylhexadecahydrophenanthro[1,2-c]furan-1-yl)ethan-1-one] | – | ≥ 10000 nM |
| C[C@@]1(O)CC[C@H]2[C@H](CC[C@@H]3[C@@H]2CC[C@]2(C)[C@@H](C(=O)Cn4cc(C#N)cn4)COC[C@@H]32)C1 [II-B14, 1-(2-((1R,4aS,4bR,6aR,8R,10aS,10bR,12aS)-8-hydroxy-8,12a-dimethylhexadecahydro-2H-naphtho[1,2-h]isochromen-1-yl)-2-oxoethyl)-1H-pyrazole-4-carbonitrile] | – | 100 to 1000 nM |
